Columns and labels:
BALB/c male mice [1] = assay: Mouse skin's barrier function, treatment test, TEWL (Test Example 5); assay type: in vivo; conditions: barrier destroyed with acetone/diethyl ether; 0.01% in ethanol, 100 μL, once a day for 2 days
Protocol: Six-week-old BALB/c male mice in groups of eight were shaven in a rostral dorsolateral area of 4 cm^2 (2 cm×2 cm) with electric clippers and the shaven area was covered for 60 seconds with an absorbent cotton (2 cm×2 cm) impregnated with a 1:1 liquid mixture of acetone and diethyl ether. This treatment for destroying the skin's barrier function was performed for 3 consecutive days on once-a-day basis. Starting on the day next to completion of the treatment for barrier destruction at day 3, a solvent (ethanol, 100 μL) or a drug dissolved in the solvent (compound No. 7, PGD2, PGF2α, or PGE1, all being at 0.01% in an amount of 100 μL) was applied to the barrier destroyed site for 2 days on once-a-day basis. On the day next to the second application of the solvent or drug, the transepidermal water loss (TEWL) at the same site was measured with Tewameter (TM210 of Courage & Khazawa, Germany) to evaluate the drug's action.

[2] = test system: NC/Nga mice manifesting atopic dermatitis; assay: Spontaneous itch-evoked scratching behavior of NC mice (Test Example 1); assay type: in vivo
Protocol: About 20-week old NC/Nga mice each weighing about 30 g and manifesting atopic dermatitis were purchased from SLC and subjected to the following experiment. A magnet was buried in both hind paws of each mouse and by detecting its magnetism, the movement of the paws was measured with an itch measuring system (product of Neuroscience; when the mouse makes an action, the magnets move accordingly and a current flows through the coil; the moving magnets cause a change in the current, which is detected, measured and analyzed). Among the scratching actions, those lasting 1.5 seconds or longer were considered itch-evoked and their number was counted continuously. […] The subsequent 24-hr itch-evoked scratching behavior was measured and the number of itch-evoked scratchings after drug administration was compared with the initial count. The experimental data was processed to calculate the percent itch suppression on the basis of the total 24-hr itch-evoked scratching counts before and after drug application. For significance testing, the itch-evoked scratching counts that were obtained before and after drug application from individual animals in each group treated with a specific concentration of drug were processed by a paired t-test. Percent itch suppression (%)=(itch-evoked scratching count before drug application−itch-evoked scratching count after drug application)×100/itch-evoked scratching count before drug application (Results)

[3] = target: T1, thromboxane (TP) receptor (Homo sapiens, UniProt P21731); assay: Human TP antagonistic action: [3H]SQ29548 binding to human washed platelets
T1 construct: endogenous in cells; host or cells: human washed platelets
T1 sequence (P21731 1-343): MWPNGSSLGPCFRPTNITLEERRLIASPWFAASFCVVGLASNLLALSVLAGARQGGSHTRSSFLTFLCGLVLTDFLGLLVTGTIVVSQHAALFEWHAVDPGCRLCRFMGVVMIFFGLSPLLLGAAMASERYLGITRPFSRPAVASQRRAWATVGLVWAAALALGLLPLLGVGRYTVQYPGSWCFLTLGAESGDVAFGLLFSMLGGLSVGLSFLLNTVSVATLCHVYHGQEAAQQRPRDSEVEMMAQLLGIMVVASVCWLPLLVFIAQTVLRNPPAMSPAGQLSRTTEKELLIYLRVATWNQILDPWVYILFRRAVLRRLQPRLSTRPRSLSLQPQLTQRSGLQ
Protocol: (C) The effect of the active ingredient of the present invention (compound No. 7) on a thromboxane (TP) receptor was measured as compared with the thromboxane agonist U44069 as a positive control drug.
The antagonistic action of the test drug on the [^3H]SQ29548 binding to human washed platelets was investigated on the basis of a documented method (J. Pharmacol. Exp. Ther., vol. 245, pp. 786-792, 1988).

BALB/c male mice [4] = assay: Mouse skin's barrier function, preventive test, TEWL (Test Example 6); assay type: in vivo; conditions: cohabitation with dermatitic NC/Nga mice; 0.01% in ethanol, 100 μL, once a day for 7 days
Protocol: Six-week-old BALB/c male mice in groups of six were shaven in a rostral dorsolateral area of 4 cm^2 (2 cm×2 cm) with electric clippers and kept in the same cage as NC/Nga mice that had developed dermatitis. From the day next to the start of cohabitation, a solvent (ethanol, 100 μL) or a drug dissolved in the solvent (compound No. 7, PGD2, PGF2α, or PGE1, all being at 0.01% in an amount of 100 μL) was applied to the shaven site for 7 days on once-a-day basis.
On the day next to the seventh application of the solvent or drug, the transepidermal water loss (TEWL) at the same site was measured with Tewameter (TM210 of Courage & Khazawa, Germany) to evaluate the drug's action, with the solvent-applied group being used as the control group.

human platelets = assay: Suppression of ADP-induced aggregation of human platelets; assay type: cell-based; conditions: human platelet-rich plasma, ADP (3 μM), Born method
Protocol: (A) Using the active ingredient of the present invention (compound No. 7) and PGD2 as a control for comparison, prostaglandin D receptor binding selectivity was determined with reference to the platelet aggregation suppressing action as the prostaglandin D receptor agonist action. 1. Human Platelet Aggregation Suppressing Action Suppression of ADP-Induced Aggregation of Human Platelets
The test was performed on purchased platelet-rich plasma (PRP) (6×10^8 platelets/mL) and platelet aggregation was measured based on the Born method (Nature, vol. 194, p. 927, 1962). To 100 μL of PRP, 5 μL of a 1 nM-3 μM test drug solution in ethanol was added and the mixture was incubated at 37° C. for 1 minute with stirring at 1000 rpm. To the resulting mixture, 5 μL of an aggregation inducer [ADP (3 μM)] was added to induce platelet aggregation and a maximum percent aggregation (a maximum change in light transmittance that occurred within 5 minutes after the induction of platelet aggregation) was determined by an aggregometer. The percent suppression of aggregation by each test drug was calculated from the maximum percent aggregation by the test drug as relative to the maximum percent aggregation by ethanol instead of the test drug solution and IC50 values were determined from the constructed dose-response curve.

## O=C(O)CSCCCC[C@@H]1[C@@H](C#C[C@@H](O)C2CCCCC2)[C@H](O)C[C@H]1Cl [Compound No. 7]
BALB/c male mice [1]
  transepidermal water loss (TEWL) compared to the solvent-applied control group: significant decrease in TEWL
[2]; concentration 0.000001% in 100% ethanol, 0.2 ml/mouse on dorsal skin, 24-hr scratching counts before vs after
  Inhibition rate (%) (percent itch suppression): 43.26%
[2]; concentration 0.000001%, scratching counts before vs after application
  Efficacy (significance, paired t-test): ** (**: P < 0.01)
[3]; 1 μM
  inhibition at 1 µM: 7%
[3]; concentration of 10 μM
  inhibition at 10 µM: 28%
BALB/c male mice [4]
  transepidermal water loss (TEWL) compared to the control group: significant decrease in TEWL
Human platelets
  IC50: 4.27 nM
